This note sets out measurements from ChEMBL document CHEMBL1201862, “PubChem BioAssay data set” (2004).

Active and inactive are the calls of the source.

Experiment [1] concerns the target Luciferin 4-monooxygenase (Photinus pyralis, UniProt P08659). The experiment is described as follows: inhibition of purified Photinus pyralis luciferase – biochemical, luminescence, dose response (AID 1891).
Experiment [2] has as its target Prothrombin (Homo sapiens, UniProt P00734). Kind of experiment: Thrombin 1536 HTS Dose Response Confirmation. [Related pubchem assays: 1046 (Thrombin 1536 HTS; hits were confirmed in this assay)]. The format is functional.
The nature of experiment [3]: A cytotoxicity screen of small molecule inhibitors of the PhoP region in Salmonella typhi identified in the primary screen. [Related pubchem assays: 1850, 1864, 1985 ]. It counts as functional.
In experiment [4] the target is Disintegrin and metalloproteinase domain-containing protein 17 (Homo sapiens, UniProt P78536). The experiment is described as follows: exosite inhibitors of ADAM17, dose response, biochemical (AID 743260).
Disintegrin and metalloproteinase domain-containing protein 17, sequence (P78536 whole entry, the tested form may be a part): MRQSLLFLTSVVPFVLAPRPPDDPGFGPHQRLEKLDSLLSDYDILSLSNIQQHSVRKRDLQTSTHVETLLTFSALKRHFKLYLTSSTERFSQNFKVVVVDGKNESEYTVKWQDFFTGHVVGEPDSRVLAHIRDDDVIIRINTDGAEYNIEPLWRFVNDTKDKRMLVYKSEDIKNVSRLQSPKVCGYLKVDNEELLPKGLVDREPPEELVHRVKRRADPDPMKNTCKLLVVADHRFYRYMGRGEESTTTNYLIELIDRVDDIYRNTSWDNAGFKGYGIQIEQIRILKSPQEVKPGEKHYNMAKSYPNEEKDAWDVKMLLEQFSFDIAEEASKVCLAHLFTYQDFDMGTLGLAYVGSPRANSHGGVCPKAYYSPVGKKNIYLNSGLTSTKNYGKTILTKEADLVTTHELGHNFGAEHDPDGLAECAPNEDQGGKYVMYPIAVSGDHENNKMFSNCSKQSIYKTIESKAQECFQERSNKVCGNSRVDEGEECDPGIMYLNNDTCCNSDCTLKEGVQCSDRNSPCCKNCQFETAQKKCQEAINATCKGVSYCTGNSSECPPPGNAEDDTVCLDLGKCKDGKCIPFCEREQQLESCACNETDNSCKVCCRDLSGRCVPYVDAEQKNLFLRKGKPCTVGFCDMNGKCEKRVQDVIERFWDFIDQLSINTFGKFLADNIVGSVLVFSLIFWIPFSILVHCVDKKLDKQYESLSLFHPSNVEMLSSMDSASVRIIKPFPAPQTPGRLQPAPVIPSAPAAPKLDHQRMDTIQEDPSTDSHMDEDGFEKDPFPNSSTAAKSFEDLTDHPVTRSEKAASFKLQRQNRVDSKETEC
Experiment [5] is described as follows: inhibition of ADAM10 peptide cleavage – biochemical, FRET peptide substrate, recombinant human ADAM10, selectivity assay for ADAM17 exosite inhibitor project, dose response (AID 743259).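 Also: ADAM10 enzyme cleaving a FRET peptide substrate.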
A short description of experiment [6]: viability of uninfected HEp-2 cells – cell-based, HTS, cytotoxicity control for RSV inhibitor project, dose response (AID 2410). The format is functional. To be noted: human respiratory syncytial virus.
Experiment [7] concerns the target Tumor necrosis factor (Homo sapiens, UniProt P01375). Kind of experiment: analog potency on TNFa NF-kB signaling – cell-based, revised, SAR follow-up (AID 2337). The format is functional.
Experiment [8] can be described thus: Vero E6 cell cytotoxicity, dose response, cytotoxicity control for non-replicating M. tuberculosis project, secondary assay (AID 492998). It counts as functional, VeroE6. The conditions noted are these: Vero C1008.
The test system of experiment [9] is HEK293. Kind of experiment: cells. To be noted: Homo sapiens.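 Also: cells exposed to compound for 14 hours overnight before viability readout.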
A short description of experiment [10]: THP-1 cell cytotoxicity, dose response, cytotoxicity control for non-replicating M. tuberculosis project (AID 489025). The format is functional.
The target of experiment [11] is Nucleotide-binding oligomerization domain-containing protein 2 (Homo sapiens, UniProt Q9HC29). The experiment is described as follows: PubChem AID 2334. It counts as functional.
Nucleotide-binding oligomerization domain-containing protein 2, sequence (Q9HC29 whole entry, the tested form may be a part): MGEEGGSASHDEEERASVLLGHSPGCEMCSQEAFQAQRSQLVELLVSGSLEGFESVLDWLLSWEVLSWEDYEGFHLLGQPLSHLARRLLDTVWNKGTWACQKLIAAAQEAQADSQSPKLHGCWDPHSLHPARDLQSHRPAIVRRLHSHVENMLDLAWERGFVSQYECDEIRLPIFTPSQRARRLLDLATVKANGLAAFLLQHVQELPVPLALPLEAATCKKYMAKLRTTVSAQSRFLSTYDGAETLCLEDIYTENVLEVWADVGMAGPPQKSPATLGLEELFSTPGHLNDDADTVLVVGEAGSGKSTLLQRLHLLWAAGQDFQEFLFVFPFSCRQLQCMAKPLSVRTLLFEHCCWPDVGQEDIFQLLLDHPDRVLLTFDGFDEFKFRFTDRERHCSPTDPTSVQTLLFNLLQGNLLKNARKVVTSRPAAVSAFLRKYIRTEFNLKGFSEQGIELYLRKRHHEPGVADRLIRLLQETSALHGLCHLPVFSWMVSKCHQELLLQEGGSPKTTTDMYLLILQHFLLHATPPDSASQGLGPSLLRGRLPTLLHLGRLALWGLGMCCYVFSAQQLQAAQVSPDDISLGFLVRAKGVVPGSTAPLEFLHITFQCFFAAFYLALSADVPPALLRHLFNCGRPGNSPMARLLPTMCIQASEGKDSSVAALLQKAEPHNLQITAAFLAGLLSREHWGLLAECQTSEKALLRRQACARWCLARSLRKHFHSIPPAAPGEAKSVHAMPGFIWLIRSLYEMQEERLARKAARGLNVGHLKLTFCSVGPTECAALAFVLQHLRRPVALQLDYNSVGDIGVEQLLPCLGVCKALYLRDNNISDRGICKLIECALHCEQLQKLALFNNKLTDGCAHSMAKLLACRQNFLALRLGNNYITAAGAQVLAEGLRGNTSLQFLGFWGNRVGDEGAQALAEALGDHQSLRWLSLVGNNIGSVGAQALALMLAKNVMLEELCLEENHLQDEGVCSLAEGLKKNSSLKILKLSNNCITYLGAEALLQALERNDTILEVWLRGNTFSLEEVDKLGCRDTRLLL
Experiment [12] in a line: cells. The format is functional.
The target of experiment [13] is T1, Nucleotide-binding oligomerization domain-containing protein 1 (Homo sapiens, UniProt Q9Y239).
T1 sequence (Q9Y239 whole entry): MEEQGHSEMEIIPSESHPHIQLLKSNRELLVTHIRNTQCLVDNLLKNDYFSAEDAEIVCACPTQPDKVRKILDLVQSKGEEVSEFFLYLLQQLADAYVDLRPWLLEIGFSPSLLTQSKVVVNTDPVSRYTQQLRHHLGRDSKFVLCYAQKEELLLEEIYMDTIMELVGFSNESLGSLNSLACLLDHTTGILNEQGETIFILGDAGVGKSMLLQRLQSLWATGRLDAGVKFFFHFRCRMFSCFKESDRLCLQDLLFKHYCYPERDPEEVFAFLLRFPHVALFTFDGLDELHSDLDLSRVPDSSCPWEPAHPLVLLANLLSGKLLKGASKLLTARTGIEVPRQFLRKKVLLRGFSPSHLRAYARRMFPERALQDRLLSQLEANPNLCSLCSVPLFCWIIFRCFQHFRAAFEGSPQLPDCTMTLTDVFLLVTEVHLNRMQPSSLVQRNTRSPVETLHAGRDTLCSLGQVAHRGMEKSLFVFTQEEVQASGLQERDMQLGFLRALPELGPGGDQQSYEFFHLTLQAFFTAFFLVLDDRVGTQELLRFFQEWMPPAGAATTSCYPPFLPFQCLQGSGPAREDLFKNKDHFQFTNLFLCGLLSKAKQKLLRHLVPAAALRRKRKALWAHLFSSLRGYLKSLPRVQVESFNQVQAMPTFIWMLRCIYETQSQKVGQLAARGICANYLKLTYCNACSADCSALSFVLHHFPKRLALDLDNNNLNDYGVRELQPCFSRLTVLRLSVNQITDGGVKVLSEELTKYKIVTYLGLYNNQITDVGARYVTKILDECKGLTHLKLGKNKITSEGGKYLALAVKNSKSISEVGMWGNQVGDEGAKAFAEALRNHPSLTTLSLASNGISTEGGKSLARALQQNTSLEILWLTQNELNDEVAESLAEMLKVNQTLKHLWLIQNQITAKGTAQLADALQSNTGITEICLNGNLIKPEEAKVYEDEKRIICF
Kind of experiment: blockers of NOD1 pathway activity – revised, SAR follow-up (AID 2333). It counts as functional.

Experiment [14] is described as follows: HepG2 cell cytotoxicity, dose response, cytotoxicity control for non-replicating M. tuberculosis project (AID 489018). The format is functional. To be noted: Mycobacterium tuberculosis.
For experiment [15], the target named is SUMO-activating enzyme (Homo sapiens, UniProt Q9UBT2). The experiment is described as follows: blockers of UBC9-mediated SUMO conjugation – biochemical, AlphaScreen, SUMOylation inhibitor project, confirmation (AID 2018). It counts as functional. (In general: In Alpha technology, singlet oxygen from a donor bead excites a nearby acceptor bead.)
SUMO-activating enzyme, sequence (Q9UBE0 whole entry): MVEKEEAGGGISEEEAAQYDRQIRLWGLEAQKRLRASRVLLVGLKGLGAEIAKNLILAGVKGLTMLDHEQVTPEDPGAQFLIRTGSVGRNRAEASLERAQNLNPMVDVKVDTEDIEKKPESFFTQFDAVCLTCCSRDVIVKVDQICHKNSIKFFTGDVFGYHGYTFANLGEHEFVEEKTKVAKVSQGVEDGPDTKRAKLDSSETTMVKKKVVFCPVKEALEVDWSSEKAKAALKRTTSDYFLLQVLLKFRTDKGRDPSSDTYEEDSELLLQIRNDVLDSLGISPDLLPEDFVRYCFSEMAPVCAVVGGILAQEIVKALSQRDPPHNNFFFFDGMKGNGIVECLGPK
SUMO-activating enzyme, sequence (Q9UBT2 whole entry): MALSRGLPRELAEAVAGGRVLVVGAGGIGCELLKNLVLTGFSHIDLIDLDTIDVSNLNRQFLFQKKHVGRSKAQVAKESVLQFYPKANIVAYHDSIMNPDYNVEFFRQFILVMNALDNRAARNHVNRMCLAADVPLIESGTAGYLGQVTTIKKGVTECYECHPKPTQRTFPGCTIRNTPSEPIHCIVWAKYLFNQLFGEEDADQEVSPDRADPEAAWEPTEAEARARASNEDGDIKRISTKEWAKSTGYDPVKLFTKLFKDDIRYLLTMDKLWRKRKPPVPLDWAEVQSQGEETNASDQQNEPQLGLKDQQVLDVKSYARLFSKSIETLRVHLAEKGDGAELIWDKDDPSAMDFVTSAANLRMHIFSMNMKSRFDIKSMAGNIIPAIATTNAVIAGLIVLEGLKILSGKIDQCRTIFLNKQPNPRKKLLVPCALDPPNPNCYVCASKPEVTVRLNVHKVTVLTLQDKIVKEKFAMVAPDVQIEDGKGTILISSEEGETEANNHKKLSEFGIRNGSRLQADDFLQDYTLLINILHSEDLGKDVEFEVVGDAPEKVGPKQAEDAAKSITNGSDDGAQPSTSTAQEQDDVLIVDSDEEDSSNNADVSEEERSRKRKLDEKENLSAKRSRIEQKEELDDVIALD
Experiment [16] addresses Eukaryotic translation initiation factor 4E (Mus musculus, UniProt P63073). The experiment is described as follows: blockers of eIF4G binding by eIF4E – biochemical, TR-FRET, dose response (AID 855).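 Also: potency for disrupting eIF4E binding to eIF4GI seen as loss of FRET.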 The format is functional.
The nature of experiment [17]: Luminescence Cell-Based Dose Retest to Confirm Inhibitors of Cancer Stem Cells. [Related pubchem assays (depositor defined):AID2717, AID2721]. It counts as functional. To be noted: Homo sapiens.
The target in experiment [18] is T2, Ubiquitin-conjugating enzyme E2 N (Homo sapiens, UniProt P61088).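 Also: Dose-response confirmation in a TR-FRET assay detecting UBC13-driven polyubiquitin chain formation, inhibition measured.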
T2 sequence (P61088 whole entry): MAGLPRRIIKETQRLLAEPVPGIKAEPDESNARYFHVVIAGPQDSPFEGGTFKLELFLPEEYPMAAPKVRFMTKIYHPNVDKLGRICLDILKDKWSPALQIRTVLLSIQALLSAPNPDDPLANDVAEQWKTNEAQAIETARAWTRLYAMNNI
It counts as functional.

The nature of experiment [19]: NIH3T3 cell viability loss – ATP luminescence, mouse fibroblasts, counter-screen, dose response (AID 2010).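 Also: cells exposed to compound for about 90 hours before reading.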 The format is functional, cell-based. Background: The purpose of a counterscreen is to sort out artefacts and off-target activity.
Experiment [20] can be described thus: Trypanosoma cruzi growth suppression in host cells – NIH3T3 host cells, beta-gal luminescence, confirmation (AID 2044).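 Also: intracellular parasites grown in NIH/3T3 mouse fibroblasts as host cells; luminescent beta-galactosidase reporter signal from transgenic T. cruzi replicating inside host cells; inhibitors lower the luminescence signal.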 It counts as functional, cell-based.
Experiment [21] has as its target Estrogen receptor beta (Homo sapiens, UniProt Q92731). The experiment is described as follows: blockers of SRC-3 recruitment to ERβ – biochemical, ELISA, streptavidin-HRP readout, orthogonal assay, confirmation (AID 1060).
Experiment [22] can be described thus: P. falciparum Dd2 growth inhibitors, dose response, SYBR Green, cherry-picked samples (AID 1159567). The format is functional, cell-based.
The nature of experiment [23]: toxicity to human hepatoma HepG2 cells – cell-based, cherry-picked samples, cytotoxicity control, dose response (AID 1159577). The format is functional.
Experiment [24] addresses DNA dC->dU-editing enzyme APOBEC-3G (Homo sapiens, UniProt Q9HC16). Kind of experiment: Dose Response confirmation of small molecule APOBEC3G DNA Deaminase Inhibitors via a fluorescence-based single-stranded DNA deaminase assay. [Related pubchem assays (depositor defined):AID493012, AID493028]. It counts as functional.
Experiment [25] addresses T3, Polyadenylate-binding protein 1 (Homo sapiens, UniProt P11940). The experiment is described as follows: MLLE domain peptide-binding blockers, IC50 – biochemical, fluorescence polarization, FITC-PAM2 peptide, dose response (AID 602259). The format is functional. The conditions noted are these: read-out: IC50_Mean. For orientation: Fluorescence polarisation rises when a labelled molecule tumbles more slowly, as on binding a larger partner.

The target in experiment [26] is T3, Polyadenylate-binding protein 1. The experiment is described as follows: MLLE binding blockers, Cy5 peptide tracer – biochemical, fluorescence polarization, Cy5-PAM2 peptide, secondary, miRNA deadenylation inhibitor project, dose response (AID 602260). To be noted: read-out: IC50_Mean. It counts as functional.

Tumor necrosis factor, sequence (P01375 whole entry): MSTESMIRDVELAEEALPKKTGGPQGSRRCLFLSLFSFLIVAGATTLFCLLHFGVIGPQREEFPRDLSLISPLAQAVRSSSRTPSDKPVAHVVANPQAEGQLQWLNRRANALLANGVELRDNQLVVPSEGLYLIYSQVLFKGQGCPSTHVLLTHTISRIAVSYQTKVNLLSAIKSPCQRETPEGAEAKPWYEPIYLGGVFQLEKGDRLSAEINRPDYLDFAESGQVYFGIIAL
Eukaryotic translation initiation factor 4E, sequence (P63073 whole entry): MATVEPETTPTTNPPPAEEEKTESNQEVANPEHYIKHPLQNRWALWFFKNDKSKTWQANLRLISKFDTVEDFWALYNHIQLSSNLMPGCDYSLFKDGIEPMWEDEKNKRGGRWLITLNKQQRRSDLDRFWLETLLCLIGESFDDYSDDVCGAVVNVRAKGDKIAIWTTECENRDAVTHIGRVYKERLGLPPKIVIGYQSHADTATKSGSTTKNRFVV
T3 sequence (P11940 whole entry, the tested form may be a part): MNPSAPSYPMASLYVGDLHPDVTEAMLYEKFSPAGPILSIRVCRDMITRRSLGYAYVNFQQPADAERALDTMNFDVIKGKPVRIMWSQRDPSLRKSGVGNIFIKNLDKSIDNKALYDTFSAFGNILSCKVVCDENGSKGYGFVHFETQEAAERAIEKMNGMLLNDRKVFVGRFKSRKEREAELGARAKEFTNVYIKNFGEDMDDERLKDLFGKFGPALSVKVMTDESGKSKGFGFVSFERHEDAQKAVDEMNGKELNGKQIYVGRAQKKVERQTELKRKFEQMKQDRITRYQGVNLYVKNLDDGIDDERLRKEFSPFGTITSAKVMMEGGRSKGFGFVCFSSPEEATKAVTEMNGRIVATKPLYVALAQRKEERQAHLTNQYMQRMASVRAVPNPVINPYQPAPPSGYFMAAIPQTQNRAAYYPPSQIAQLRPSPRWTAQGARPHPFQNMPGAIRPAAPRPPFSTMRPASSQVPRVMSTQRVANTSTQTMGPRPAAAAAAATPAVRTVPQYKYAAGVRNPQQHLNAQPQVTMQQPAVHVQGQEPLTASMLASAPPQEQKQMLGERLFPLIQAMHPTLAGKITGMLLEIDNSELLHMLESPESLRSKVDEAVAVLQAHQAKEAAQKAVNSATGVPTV
Estrogen receptor beta, sequence (Q92731 whole entry): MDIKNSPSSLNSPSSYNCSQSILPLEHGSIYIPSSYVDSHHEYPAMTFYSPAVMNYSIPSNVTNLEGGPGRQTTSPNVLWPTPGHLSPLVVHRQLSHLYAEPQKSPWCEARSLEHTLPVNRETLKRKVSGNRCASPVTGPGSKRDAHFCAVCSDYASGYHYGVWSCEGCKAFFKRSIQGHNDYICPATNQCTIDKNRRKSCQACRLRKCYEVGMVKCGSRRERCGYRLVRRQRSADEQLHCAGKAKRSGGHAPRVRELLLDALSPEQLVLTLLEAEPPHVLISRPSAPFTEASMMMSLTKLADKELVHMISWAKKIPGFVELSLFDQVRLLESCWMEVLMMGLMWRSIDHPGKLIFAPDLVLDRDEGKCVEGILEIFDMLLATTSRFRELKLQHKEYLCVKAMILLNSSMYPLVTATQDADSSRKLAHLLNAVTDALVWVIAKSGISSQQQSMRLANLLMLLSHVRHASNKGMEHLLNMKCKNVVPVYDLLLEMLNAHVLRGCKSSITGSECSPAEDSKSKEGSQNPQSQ
DNA dC->dU-editing enzyme APOBEC-3G, sequence (Q9HC16 whole entry, the tested form may be a part): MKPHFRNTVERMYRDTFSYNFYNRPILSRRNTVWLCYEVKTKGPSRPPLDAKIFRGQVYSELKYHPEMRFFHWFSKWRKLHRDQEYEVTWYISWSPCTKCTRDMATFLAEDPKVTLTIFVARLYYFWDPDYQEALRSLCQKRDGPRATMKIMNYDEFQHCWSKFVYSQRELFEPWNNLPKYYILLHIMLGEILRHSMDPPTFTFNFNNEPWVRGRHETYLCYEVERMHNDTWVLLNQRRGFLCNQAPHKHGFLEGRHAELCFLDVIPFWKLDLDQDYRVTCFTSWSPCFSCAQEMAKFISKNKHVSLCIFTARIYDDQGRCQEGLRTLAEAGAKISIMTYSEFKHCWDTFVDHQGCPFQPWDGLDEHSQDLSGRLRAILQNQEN

Broadly, the EC50 is the concentration at which the effect is half-maximal. In the case of `O=C(COC(=O)c1n[nH]c2ccccc12)Nc1cccc(S(=O)(=O)N2CCOCC2)c1`, the 50% effective concentration (EC50) in experiment [1] is listed as > 112 µM (not active). Further, the IC50 in experiment [2] was 1.11 µM (active).
Regarding `Cc1c(CC(=O)N2CCC(C(N)=O)CC2)c(=O)oc2cc3c(cc12)CCC1(CCCCC1)O3`, the EC50 in experiment [3] was > 50 µM (active).
Usually CC50 stands for the concentration at which the toxic effect on the cells reaches its halfway point. Consider `Clc1cccc(NCc2nnc(SCc3ccc(Cl)cc3Cl)o2)c1`, for which the IC50 in experiment [4] is > 69.5 µM (inactive); in experiment [5], 25.4 µM (inactive). Besides, the CC50 in experiment [6] was 19.1 µM (active).
As for `CC(=O)Nc1nc2ccccc2n1Cc1ccccc1Cl`, the IC50 in experiment [7] is 19.9 µM (active); in [9], > 20 µM (inactive); in [11], > 20 µM (inactive); in experiment [12], 4.15 µM (active); in experiment [13] it was > 20 µM (inactive). Moreover, the cytotoxic concentration (CC50) in experiment [8] was 15.5 µM (active); in experiment [10] it was 14.1 µM (active); in experiment [14] it was > 20 µM (active).
For `O=C(O)c1c(-n2cccc2)sc2c1CCCC2`, the IC50 in [7], in experiment [9], in [11] and in [13] was > 20 µM (inactive) each time.
In the case of `O=C(CCc1ccccc1)n1nc(-c2ccco2)nc1SCc1ccccc1`, the IC50 in experiment [2] was 0.133 µM (active).
With `COc1cc(NC(=O)c2cncc(-c3ccc(C#N)cc3)c2)cc(C(=O)Nc2cccc(C(F)(F)F)c2)c1`, the IC50 in experiment [15] was 53.5 µM (active).
Consider `NC(=O)CC(NC(=O)Cc1cccc2ccccc12)c1ccc(NCCc2ccccc2F)c([N+](=O)[O-])c1` (stereo not given), for which the IC50 in experiment [15] was 39 µM (active).
Regarding `O=C(O)C1CC(c2ccccc2F)=NO1` (stereo not given), the IC50 in experiment [16] is > 64 µM (inactive).
For orientation: AC50 means the concentration giving half of the maximal activity seen. As for `CCN1CCN(CCNC(=O)c2ccc3c(c2)N(Cc2ccc(F)cc2)C(=O)/C(=C/c2ccccc2)S3)CC1`, the AC50 in [17] was 3.61 µM (active). The IC50 in experiment [16] is 50 µM (inactive); in experiment [18] it was > 20 µM (inactive).
Take `N#CCCn1c2ccccc2c2nc3ccccc3nc21`: the concentration for a half-maximal effect (EC50) in [3] was > 50 µM (active).
Regarding `Cc1nc2cc(C(=O)N3CCC4(CC3)OCCO4)ccc2n1-c1cccc(F)c1`, in experiment [3], the EC50 is > 50 µM (active).
Turning to `N#C/C(=C(/O)COC(=O)CSc1ccc(Cl)cc1)c1nc2ccccc2[nH]1`, the IC50 in experiment [7], in [9], in experiment [11] and in experiment [13] was > 20 µM (inactive) in each case.
For `COc1ccc(Cl)cc1NC(=O)CN(C)CC(=O)Nc1ccccc1C(F)(F)F`, in [3], the EC50 was > 50 µM (active).
`Cn1c(SCC(=O)NN=C(S)Nc2ccccc2)nnc1-c1ccncc1`: in [2], the IC50 is > 50 µM (not active).
In the case of `O=C(NCCc1ccncc1)Nc1ccc(Cl)c(Cl)c1`, the EC50 in experiment [3] was > 50 µM (active); in experiment [19], > 60 µM (not active); in experiment [20], 1.34 µM (active).
In the case of `Cc1nc2ncnn2c(N2CCN(C(=O)Cc3cccs3)CC2)c1C`, in experiment [21], the IC50 is 0.107 µM (not active).
In the case of `O=C(CC(c1ccc(F)cc1)c1ccco1)N1CCOCC1` (stereo not given), the IC50 in experiment [2] was > 50 µM (not active).
For the compound `O=C(Nc1nc2ccccc2n1Cc1ccc(Cl)cc1)c1ccc(F)cc1`, the IC50 in experiment [7], in [9], in experiment [11] and in [13] was > 20 µM (inactive) in each case.
In the case of `O=C(Nc1nc2ccccc2n1Cc1ccc(Cl)cc1)C1CCCCC1`, the IC50 in [7], in [9], in experiment [11] and in experiment [13] was > 20 µM (inactive) throughout.
For `C/C=C/c1ccc([C@@H]2[C@@H](CO)N(c3nc(CC)cs3)[C@@H]2CNC(C)C)cc1`, the AC50 is 0.751 µM (active) in experiment [22] and 20.8 µM (active) in [23].
As to `OC[C@H]1[C@@H](c2ccc(/C=C/c3ccccc3)cc2)[C@@H]2CN(Cc3ccncc3)CCCCN12`, the AC50 in experiment [22] is 2.32 µM (active); in experiment [23], 12.7 µM (active).
In the case of `Cc1ccc(-c2ccc3c(c2)O[C@@H](CN(C)C(=O)Nc2ccc(C(F)(F)F)cc2)[C@H](C)CN([C@H](C)CO)S3(=O)=O)cc1`, the half-maximal activity concentration (AC50) in experiment [22] is 5.26 µM (active); in [23], > 39 µM (inactive).
On to `Cc1ccc2c(c1)-c1c(ssc1=S)C(C)(C)N2C(=O)c1ccco1`, for which the values for the IC50 in experiment [24], in [25] and in experiment [26] were > 100 µM (inactive), > 66 µM (inactive) and > 66 µM (inactive), respectively.
